The values below are quoted from earlier work in patent publication US12648914B2, “Injectable sustained release composition and method of using the same for treating inflammation in joints and pain associated therewith” (priority 2013, dated 2026).

The conditions of series [1]: reported, Möllmann et al. 1998, after inhaled administration.
The conditions of series [2]: human subjects, 40 mg.

As to `CCC(=O)O[C@]1(C(=O)SCF)[C@H](C)C[C@H]2[C@@H]3C[C@H](F)C4=CC(=O)C=C[C@]4(C)[C@@]3(F)[C@@H](O)C[C@@]21C` [fluticasone propionate], in series [1], the EC50 is 0.007 to 0.03 ng/mL.
`CC(C)(C)CC(=O)OCC(=O)[C@@]12OC(C)(C)O[C@@H]1C[C@H]1[C@@H]3CCC4=CC(=O)C=C[C@]4(C)[C@@]3(F)[C@@H](O)C[C@@]12C` [triamcinolone hexacetonide]: in series [2], the “release profile after intra-articular administration” value is “significant initial burst followed by rapid decline”.

In general, EC50 refers to the midpoint of the concentration-response curve.
